Experimental data as given in PMC4841536, “Characterization of the Anti-HCV Activities of the New Cyclophilin Inhibitor STG-175” (PLoS ONE, 2016).
Where two headings read alike, the source gives them in different places.

Experiments:
[1] = system: subgenomic Con1 (GT1b) replicon in Huh-7 cells; format: cell-based, hepatitis C virus; conditions: for passage at which resistant variants emerged (CypI comparison): Fig 3C
Description: Huh-7 cell expressing subgenomic Con1 (GT1b) replicon were seeded in a 10 cm dish at a density of 3 × 10^5 cells per culture flask in complete DMEM (with G418) with STG-175 or selected drugs. Cells were grown until they reached 90% confluence, trypsinized and re-seeded at the same cell concentration in a new 10-cm dish with the same drug concentration. Cells were passaged 22 times in the presence of drugs. At each passage, sample of cells were collected, RNA extracted according to the manufacturer's instructions and analyzed by RT-PCR for HCV RNA levels.
Fig 3 Replicon clearance, replication rebound and resistance analyses. […] Then drugs were removed to allow viral replication rebound to occur. At each passage, samples of cells were collected, RNA extracted and analyzed by RT-PCR for HCV RNA levels. B. Emergence of resistance: Con1 replicon Huh-7 cells were passaged 22 times in the absence or presence of STG-175 or selected DAAs. At each passage, sample of cells were collected, RNA extracted and analyzed by RT-PCR for HCV RNA levels. C. […] Data are expressed as number of HCV RNA copies per cell. […] Data are expressed as mean of relative light units and calculated EC50s are presented. […] E. Degree of resistance of D320E and Y321N Con1 variants: Left panel. Wild-type (WT), D320E and D320/Y321N NS5A Con1 RNA were electroporated into Huh7.5.1 cells and replication monitored over 8 days by quantifying the levels of intracellular HCV RNA. Right panel. Same as just above except that increasing concentrations of STG-175 were added at the time of the electroporation. […] STG-175 is taken as the substance from the printed x-axis title 'STG-175 in Log nM'.
We then examined the development of resistance to STG-175. GT1b Con1 sub-genomic replicon cells were grown in the presence of STG-175 (0.25 and 1 μM), telaprevir (2.5 and 10 μM), boceprevir (2.5 and 10 μM), daclatasvir 100 pM and 1 nM) or a combination of STG-175 (0.25 μM) with either telaprevir (2.5 μM), boceprevir (2.5 μM) or daclatasvir (100 pM) for 22 successive passages. At each passage, fresh drug was added and a sample of cells was taken to quantify HCV RNA levels by RT-qPCR.

[2] = system: HCV GT4a subgenomic replicon ED43/SG-Feo; test: Luciferase reporter replicon antiviral assay, GT4a; format: cell-based; conditions: Hepatitis C virus
Description: The anti-HCV activity of STG-175 was conducted using a panel of luciferase reporter replicon cell lines including GT1a, GT1b, GT2a, GT3a and GT4a as we described previously. The GT1a subgenomic renilla luciferase reporter replicon H77 RLucP (7) was supplied by Dr. Delaney. The GT1b subgenomic firefly luciferase reporter replicon pFK-I389/NS3-3’ [29] was supplied by Dr. Bartenschlager. The GT1B subgenomic NS3, NS5A and NS5B mutants were created via homologous recombination using the In-Fusion HD Cloning kit (Clontech) as we described previously. The GT2a genomic luciferase reporter replicon Luc-Neo-JFH-1 was generated as previously. The plasmid pFK-Luc-JFH1 was supplied from Drs. […] The CellTiter-Fluor™ Cell Viability Assay is a non-lytic fluorescence assay, which measures the number of live cells. […] Luciferase activity was determined using the Luciferase Assay System (Promega) in a Berthold luminometer. […] Viable cells continuously convert resazurin to resorufin, increasing the overall fluorescence and color of the media surrounding cells.
Fig 2 Anti-HCV activities of STG-175 among GTs. […] Luciferase activity was determined using the Luciferase Assay System in a Berthold luminometer. […] Data are expressed as mean of relative light units and calculated EC50s are presented. […]

CC=CCC(C)C(O)C1C(=O)NC(CC)C(=O)N(C)C(CSCCCCO)C(=O)N(C)C(CC(C)(C)O)C(=O)NC(C(C)C)C(=O)N(C)C(CC(C)C)C(=O)NC(C)C(=O)NC(C)C(=O)N(C)C(CC(C)C)C(=O)N(C)C(CC(C)C)C(=O)N(C)C(C(C)C)C(=O)N1C (stereo not drawn) [STG-175]
cell culture passages required to detect emergence of resistant replicon colonies [1]: > 16 passages | passage at which resistant variants emerged (CypI comparison) ([1]; 0.25 μM of drug selection): 18 passage | passage at which resistance began ([1]; 1 μM drug pressure, first account (Fig 3B)): 19 passage | passage at which resistant variants emerged (CypI comparison) ([1]; 1 μM of drug selection): 21 passage | EC50 ([2]; 72 h, read-out: EC50 GT4a): 0.0152 µM | EC50 ([2]; read-out: EC50 GT4a (Fig 2D)): 0.0152 µM
